In patent publication US12528814B2, “Bifunctional degraders of interleukin-1 receptor-associated kinases and therapeutic use thereof” (NURIX THERAPEUTICS, INC., priority 2020, dated 2026):
pIC50: −log10 of the molar value.

What was measured:
[1] = target: T1, IRAK4 (Homo sapiens (Human), UniProt Q9NWZ3); assay: IRAK4 Biochemical HTRF Kinase Assay; details: Table 5; multiple runs; read-out: IRAK4 HTRF biochemical: IC50
Outline: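 HTRF KinEASE STK S1 format measuring IRAK4 phosphorylation of biotinylated peptide; reaction solution of 5 μM STK-S1, 10 mM ATP, 10 mM MgCl2 added (stock, to 10 μl final), 90 min at ambient temperature, detection 60 min. IC50 from sixteen-point duplicate curves by non-linear regression.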
Target sequence in this assay (Q9NWZ3 whole entry, species assumed): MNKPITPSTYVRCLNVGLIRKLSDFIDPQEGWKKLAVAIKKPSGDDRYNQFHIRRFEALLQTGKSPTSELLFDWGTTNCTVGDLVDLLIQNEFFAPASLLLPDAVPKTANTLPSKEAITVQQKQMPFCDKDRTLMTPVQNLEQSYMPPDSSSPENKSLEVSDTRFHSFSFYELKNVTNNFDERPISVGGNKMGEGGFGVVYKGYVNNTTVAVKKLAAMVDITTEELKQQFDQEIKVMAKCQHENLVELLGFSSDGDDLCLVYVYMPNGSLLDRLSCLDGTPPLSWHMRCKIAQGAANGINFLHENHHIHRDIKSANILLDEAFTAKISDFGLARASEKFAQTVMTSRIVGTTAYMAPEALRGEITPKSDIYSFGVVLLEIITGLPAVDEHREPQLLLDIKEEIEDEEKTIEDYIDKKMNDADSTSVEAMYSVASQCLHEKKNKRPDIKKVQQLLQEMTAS

[2] = target: T1, IRAK4; assay: IRAK4 Degradation HiBiT Assay; details: multiple runs, HiBiT-tagged Jurkat cells, 4 hrs; for Dmax: Jurkat, read-out: Cellular IRAK4 HiBiT: Dmax, Table 5; for DC50: read-out: Cellular IRAK4 HiBiT: DC50; for DC50 / Cellular IRAK4 HiBiT: Dmax: Table 5
Target sequence in this assay (Q9NWZ3 whole entry): as the sequence (Q9NWZ3 whole entry, species assumed) above
Experimental: Compound dilution series (11-point, 3.16-fold dilutions in DMSO, columns 1-11 and 12-22) at 500× the final required concentrations were prepared in Labcyte LDV 384-well plates (cat. no. LP-0200) using a Labcyte Echo 550 Liquid Handler. The 500× solutions ranged from 5 mM to 0.5 μM (final assay concentration range 10 μM to 0.1 nM). Using the Echo, the 500× solutions were stamped into white, 384-well assay plates (Corning, cat. no. 3570) at 60 nL/well. […] C-terminal HiBiT-tagged Jurkat cells (polyclonal cell line or clone 8D5) were plated at 1×10^6 cells/mL, 30 μL/well (3×10^4 cells/well) in complete RPMI (10% FBS, 1% L-glutamine). Cells were incubated for 4 hrs at 32° C./6% CO2.
Following incubation, 30 uL of complete Nano-Glo HiBiT Lytic Detection Reagent (Nano-Glo HiBiT Lytic Buffer with 1:50 Nano-Glo HiBiT Lytic Substrate and 1:100 LgBiT Protein; Promega cat. no. N3040) was added. Cells were further incubated for 10 min at room temperature (RT). Luminescence units (LU) were read on an EnVision plate reader (Perkin Elmer, 0.1 sec per well). Percent IRAK4 remaining per sample was calculated as follows:
Using Graphpad Prism, % IRAK4 remaining values were plotted as a function of compound concentration.

Row | Compound | pIC50 [1] | Dmax [2] [%] | DC50 [2] [nM] | Cellular IRAK4 HiBiT: Dmax [2] [%]
1 | CNc1cc(-c2ccc3cc(C#N)cnn23)ncc1-c1nnc([C@H]2CC[C@@H](NC(=O)CCOCCNc3cccc4c3C(=O)N(C3CCC(=O)NC3=O)C4=O)CC2)s1 (stereo partly drawn) [Example 116, N-((1s,4s)-4-(5-(6-(3-cyanopyrrolo[1,2-b]pyridazin-7-yl)-4-(methylamino)pyridin-3-yl)-1,3,4-thiadiazol-2-yl)cyclohexyl)-3-(2-((2-(2,6-dioxopiperidin-3-yl)-1,3-dioxoisoindolin-4-yl)amino)ethoxy)propanamide] | 8.66 | 60 | 46.3 | 
2 | CNc1cc(-c2ccc3cc(C#N)cnn23)ncc1-c1nnc([C@H]2CC[C@H](NC(=O)C[C@H](NC(=O)[C@@H]3C[C@@H](O)CN3C(=O)[C@@H](NC(=O)C3(F)CC3)C(C)(C)C)c3ccc(-c4scnc4C)cc3)CC2)s1 [Example 118, (2S,4R)—N—((S)-3-(((1r,4S)-4-(5-(6-(3-cyanopyrrolo[1,2-b]pyridazin-7-yl)-4-(methylamino)pyridin-3-yl)-1,3,4-thiadiazol-2-yl)cyclohexyl)amino)-1-(4-(4-methylthiazol-5-yl)phenyl)-3-oxopropyl)-1-((S)-2-(1-fluorocyclopropane-1-carboxamido)-3,3-dimethylbutanoyl)-4-hydroxypyrrolidine-2-carboxamide] | 8.85 | 118 | 35.2 | 
3 | CNc1cc(-c2ccc3cc(C#N)cnn23)ncc1-c1nnc([C@H]2CC[C@H](NC(=O)CCCOc3cc(-c4scnc4C)ccc3CNC(=O)[C@@H]3C[C@@H](O)CN3C(=O)[C@@H](NC(=O)C3(F)CC3)C(C)(C)C)CC2)s1 [Example 119, (2S,4R)—N-(2-(4-(((1r,4S)-4-(5-(6-(3-cyanopyrrolo[1,2-b]pyridazin-7-yl)-4-(methylamino)pyridin-3-yl)-1,3,4-thiadiazol-2-yl)cyclohexyl)amino)-4-oxobutoxy)-4-(4-methylthiazol-5-yl)benzyl)-1-((S)-2-(1-fluorocyclopropane-1-carboxamido)-3,3-dimethylbutanoyl)-4-hydroxypyrrolidine-2-carboxamide] | 8.66 | 117 | 116 | 
4 | CNc1cc(-c2ccc3cc(C#N)cnn23)ncc1-c1nnc([C@H]2CC[C@@H](NC(=O)CCC(=O)N[C@H](C(=O)N3C[C@H](O)C[C@H]3C(=O)N[C@@H](C)c3ccc(-c4scnc4C)cc3)C(C)(C)C)CC2)s1 [Example 121, N1-((1s,4R)-4-(5-(6-(3-cyanopyrrolo[1,2-b]pyridazin-7-yl)-4-(methylamino)pyridin-3-yl)-1,3,4-thiadiazol-2-yl)cyclohexyl)-N4—((S)-1-((2S,4R)-4-hydroxy-2-(((S)-1-(4-(4-methylthiazol-5-yl)phenyl)ethyl)carbamoyl)pyrrolidin-1-yl)-3,3-dimethyl-1-oxobutan-2-yl)succinamide] | 8.92 | 95 | 1080 | 
5 | CNc1cc(-c2ccc3cc(C#N)cnn23)ncc1-c1nnc(N2CCCC3(CN(Cc4ccc5c(c4)CN(C4CCC(=O)NC4=O)C5=O)C3)C2)s1 (stereo not drawn) [Example 123, 7-(5-(5-(2-((2-(2,6-dioxopiperidin-3-yl)-1-oxoisoindolin-5-yl)methyl)-2,6-diazaspiro[3.5]nonan-6-yl)-1,3,4-thiadiazol-2-yl)-4-(methylamino)pyridin-2-yl)pyrrolo[1,2-b]pyridazine-3-carbonitrile] | 8.68 |  | > 9980 | 
6 | CNc1cc(-c2ccc3cc(C#N)cnn23)ncc1-c1nnc(N2CCCC3(CN(C(=O)c4ccc5c(c4)C(=O)N(C4CCC(=O)NC4=O)C5=O)C3)C2)s1 (stereo not drawn) [Example 124, 7-(5-(5-(2-(2-(2,6-dioxopiperidin-3-yl)-1,3-dioxoisoindoline-5-carbonyl)-2,6-diazaspiro[3.5]nonan-6-yl)-1,3,4-thiadiazol-2-yl)-4-(methylamino)pyridin-2-yl)pyrrolo[1,2-b]pyridazine-3-carbonitrile] | 8.72 |  | > 9980 | 
7 | CNc1cc(-c2ccc3cc(C#N)cnn23)ncc1-c1nnc(C2CCC(NC(=O)Cn3ccc(C(=O)N[C@H](C(=O)N4C[C@H](O)C[C@H]4C(=O)N[C@@H](C)c4ccc(-c5scnc5C)cc4)C(C)(C)C)n3)CC2)s1 (stereo partly drawn) [Example 125, 1-(2-(((1r,4S)-4-(5-(6-(3-cyanopyrrolo[1,2-b]pyridazin-7-yl)-4-(methylamino)pyridin-3-yl)-1,3,4-thiadiazol-2-yl)cyclohexyl)amino)-2-oxoethyl)-N—((S)-1-((2S,4R)-4-hydroxy-2-(((S)-1-(4-(4-methylthiazol-5-yl)phenyl)ethyl)carbamoyl)pyrrolidin-1-yl)-3,3-dimethyl-1-oxobutan-2-yl)-1H-pyrazole-3-carboxamide] | 8.77 | 116 | 166 | 
8 | CNc1cc(-c2ccc3cc(C#N)cnn23)ncc1-c1nnc(C23CCC(NC(=O)CCC(=O)N[C@H](C(=O)N4C[C@H](O)C[C@H]4C(=O)N[C@@H](C)c4ccc(-c5scnc5C)cc4)C(C)(C)C)(CC2)CC3)s1 [Example 128, N1-(4-(5-(6-(3-cyanopyrrolo[1,2-b]pyridazin-7-yl)-4-(methylamino)pyridin-3-yl)-1,3,4-thiadiazol-2-yl)bicyclo[2.2.2]octan-1-yl)-N4—((S)-1-((2S,4R)-4-hydroxy-2-(((S)-1-(4-(4-methylthiazol-5-yl)phenyl)ethyl)carbamoyl)pyrrolidin-1-yl)-3,3-dimethyl-1-oxobutan-2-yl)succinamide] | 8.77 | 139 | 432 | 
9 | CNc1cc(-c2ccc3cc(C#N)cnn23)ncc1-c1nnc(C23CCC(NC(=O)CCOCCC(=O)N[C@H](C(=O)N4C[C@H](O)C[C@H]4C(=O)NCc4ccc(-c5scnc5C)cc4)C(C)(C)C)(CC2)CC3)s1 [Example 129] | 8.92 | 115 | 356 | 
10 | CNc1cc(-c2ccc3cc(C#N)cnn23)ncc1-c1nnc(C23CCC(NC(=O)[C@H]4CC[C@H](C(=O)N[C@H](C(=O)N5C[C@H](O)C[C@H]5C(=O)NCc5ccc(-c6scnc6C)cc5)C(C)(C)C)CC4)(CC2)CC3)s1 [Example 130, (1S,4r)-N1-(4-(5-(6-(3-cyanopyrrolo[1,2-b]pyridazin-7-yl)-4-(methylamino)pyridin-3-yl)-1,3,4-thiadiazol-2-yl)bicyclo[2.2.2]octan-1-yl)-N4—((S)-1-((2S,4R)-4-hydroxy-2-((4-(4-methylthiazol-5-yl)benzyl)carbamoyl)pyrrolidin-1-yl)-3,3-dimethyl-1-oxobutan-2-yl)cyclohexane-1,4-dicarboxamide] | 8.74 |  | 126 | 110

Second part, led by results:

Row | pIC50 [1] | Dmax [2] [%] | DC50 [2] [nM] | Compound | Cellular IRAK4 HiBiT: Dmax [2] [%]
11 | 8.92 | 20 | 27.1 | CNc1cc(-c2ccc3cc(C#N)cnn23)ncc1-c1nnc([C@H]2CC[C@@H](NC(=O)CCOCCOCCOCCNc3cccc4c3C(=O)N(C3CCC(=O)NC3=O)C4=O)CC2)s1 (stereo partly drawn) [Example 117, N-((1s,4s)-4-(5-(6-(3-cyanopyrrolo[1,2-b]pyridazin-7-yl)-4-(methylamino)pyridin-3-yl)-1,3,4-thiadiazol-2-yl)cyclohexyl)-3-(2-(2-(2-((2-(2,6-dioxopiperidin-3-yl)-1,3-dioxoisoindolin-4-yl)amino)ethoxy)ethoxy)ethoxy)propanamide] | 
12 | 8.96 |  | 33.4 | CNc1cc(-c2ccc3cc(C#N)cnn23)ncc1-c1nnc([C@H]2CC[C@@H](NC(=O)CCCCCNc3cccc4c3C(=O)N(C3CCC(=O)NC3=O)C4=O)CC2)s1 (stereo partly drawn) [Example 120, N-((1s,4s)-4-(5-(6-(3-cyanopyrrolo[1,2-b]pyridazin-7-yl)-4-(methylamino)pyridin-3-yl)-1,3,4-thiadiazol-2-yl)cyclohexyl)-6-((2-(2,6-dioxopiperidin-3-yl)-1,3-dioxoisoindolin-4-yl)amino)hexanamide] | 32
13 | 8.96 |  | > 9980 | CNc1cc(-c2ccc3cc(C#N)cnn23)ncc1-c1nnc(N2CCCC3(CN(Cc4ccc5c(c4)C(=O)N(C4CCC(=O)NC4=O)C5=O)C3)C2)s1 (stereo not drawn) [Example 122, 7-(5-(5-(2-((2-(2,6-dioxopiperidin-3-yl)-1,3-dioxoisoindolin-5-yl)methyl)-2,6-diazaspiro[3.5]nonan-6-yl)-1,3,4-thiadiazol-2-yl)-4-(methylamino)pyridin-2-yl)pyrrolo[1,2-b]pyridazine-3-carbonitrile] | 
14 | 9.05 | 111 | 63.1 | CNc1cc(-c2ccc3cc(C#N)cnn23)ncc1-c1nnc([C@H]2CC[C@@H](NC(=O)CN3CCN(c4ccc5c(c4)C(=O)N(C4CCC(=O)NC4=O)C5=O)CC3)CC2)s1 (stereo partly drawn) [Example 126, N-((1s,4s)-4-(5-(6-(3-cyanopyrrolo[1,2-b]pyridazin-7-yl)-4-(methylamino)pyridin-3-yl)-1,3,4-thiadiazol-2-yl)cyclohexyl)-2-(4-(2-(2,6-dioxopiperidin-3-yl)-1,3-dioxoisoindolin-5-yl)piperazin-1-yl)acetamide] | 
15 | 9.10 | 58 | 187 | CNc1cc(-c2ccc3cc(C#N)cnn23)ncc1-c1nnc([C@H]2CC[C@@H](NC(=O)CN3CCC4(CC3)CN(c3ccc5c(c3)C(=O)N(C3CCC(=O)NC3=O)C5=O)C4)CC2)s1 (stereo partly drawn) [Example 127, N-((1s,4s)-4-(5-(6-(3-cyanopyrrolo[1,2-b]pyridazin-7-yl)-4-(methylamino)pyridin-3-yl)-1,3,4-thiadiazol-2-yl)cyclohexyl)-2-(2-(2-(2,6-dioxopiperidin-3-yl)-1,3-dioxoisoindolin-5-yl)-2,7-diazaspiro[3.5]nonan-7-yl)acetamide] | 
